Holding throughout (assay type): cell-based
One assay has as its target T1, human LHCG receptor (Homo sapiens, UniProt P22888).
T1 construct: expressed in transfected cells
Put plainly: intracellular cAMP accumulation, agonism at LHCGR stably expressed in HEK EM 293 cells. Particulars: full activation of LHCGR by LH set at 100%. On the procedure:
With reference to Table 1, exemplary disclosed compounds were evaluated against human TSH receptor and human LHCG receptor that were stably expressed in HEK 293 EM cells as previously described by Libert et al. (Biochem. Biophys. Res. Commun. 1989, 165, 1250-1255); and by Schulz et al. (Mol. Endocrinol. 1999, 13, 181-190). Cell surface expression of TSH receptor and LHCG receptor were determined via FACS analysis (Kleinau, G.; Jäschke, H.; Neumann, S.; Lättig, S.; Paschke, R.; Krause, G. J. Biol. Chem. 2004, 279, 51590-51600).
Following aspiration of the medium after incubation with compounds, cells were lysed using lysis buffer 1 of the cAMP Biotrak Enzymeimmunoassay (EIA) System (Amersham Biosciences). The cAMP content of the cell lysate was determined using the manufacturer's protocol. […] The potency (EC50) was obtained from dose response curves (0-100 μM compound) by data analysis with GraphPad Prism 4 for Windows. […] The data are presented as mean±SEM of two independent experiments, each performed in duplicate.
Transiently transfected cells were cultured for 48 hours before the cAMP assay. HEK-EM 293 cells stably expressing TSHR, LHCGR or FSHR were seeded into 24-well plates with a density of 2.2×10^5 cells/well 24 hours before the cAMP assay. After removal of growth medium, cells were incubated for 1 hour in HBSS (Cellgro) with 10 mM HEPES (Cellgro) containing 1 mM 3-isobutyl-1-methylxanthine (IBMX) (Sigma) and the ligand of interest in a humidified 5% CO2 incubator at 37° C. The intracellular cAMP content was determined with the cAMP Biotrak Enzymeimmunoassay (EIA) System (GE Healthcare). Data were analyzed using GraphPad Prism 4 for Windows. Receptor expression was measured as described in Jaschke et al., J Biol Chem 281:9841-9844.

The next assay deals with T2, TSHR mutant Y7.42A (Homo sapiens, UniProt P16473, Y667A).
T2 construct: expressed in transfected cells; host or cells: HEK-EM 293 (transient, FuGENE 6)
The experiment in a line: cAMP production in HEK-EM 293 cells transiently expressing TSHR mutant Y7.42A. Particulars: 30 μM compound. On the procedure: HEK-EM 293 cells were grown in Dulbecco's modified Eagle's Medium (DMEM) supplemented with 10% fetal bovine serum, 100 units/ml penicillin and 10 μg/ml streptomycin (Life Technologies Inc.) at 37° C. in a humidified 5% CO2 incubator. Cells were transiently transfected with wild type TSHR and mutant receptors in 24-well plates (7.5×10^4 cells per well) with 0.4 μg DNA/well using FuGENE™ 6 reagent (Roche) according to the manufacturer's protocol.
The M9 mutant is described in Jaschke et al., J Biol Chem 281:9841-9844. The Y7.42A mutant was introduced into hTSHR-pcDNA3.1 via the QuickChange XL Site-Directed Mutagenesis kit (Stratagene). The construct was verified by sequencing (MWG Biotech).
Transiently transfected cells were cultured for 48 hours before the cAMP assay. HEK-EM 293 cells stably expressing TSHR, LHCGR or FSHR were seeded into 24-well plates with a density of 2.2×10^5 cells/well 24 hours before the cAMP assay. […] The intracellular cAMP content was determined with the cAMP Biotrak Enzymeimmunoassay (EIA) System (GE Healthcare). Data were analyzed using GraphPad Prism 4 for Windows. Receptor expression was measured as described in Jaschke et al., J Biol Chem 281:9841-9844.
Background: Changes in cAMP serve as a functional read-out for many G protein-coupled receptors.

The subject of assay [1] is thyroperoxidase (TPO) mRNA expression in human thyrocytes. Put plainly: TPO mRNA expression in primary cultures of human thyrocytes. More on the design: inhibition of TSH-stimulated increase of TPO mRNA expression: dose or concentration left out as unconfirmed. On the procedure:
Thyroid tissue samples were obtained through the NIH Clinical Center during surgery for unrelated reasons. Patients provided informed consent on an IRB approved protocol and materials were received anonymously via approval of research activity through the Office of Human Subjects Research. The specimens were maintained in HBSS on ice and isolation of cells was initiated within 4 hours after surgery. All preparations were performed under sterile conditions. Tissue samples were minced into small pieces by fine surgical forceps and scissors in a 10 cm dish with a small volume of HBSS. Tissue pieces were transferred to a 15 ml tube (Falcon) and washed at least 3 times with HBSS. Afterward, tissue pieces were incubated with HBSS containing 3 mg/ml Collagenase Type IV (Gibco). Enzymatic digestion proceeded for 30 minutes or longer with constant shaking in a water bath at 37° C. until a suspension of isolated cells was obtained. After centrifugation for 5 minutes at 1000 rpm, the supernatant was removed and cells were resuspended in 10 ml DMEM with 10% FBS. Cells were plated in 10 cm tissue culture dishes and incubated at 37° C. in a humidified 5% CO2 incubator. After 24 hours, the supernatant containing non-adherent cells was removed. The primary cultures of thyroid cells formed a confluent monolayer within 5-7 days. […]

Each structure is given as a SMILES string.

T1 sequence (P22888 27-699): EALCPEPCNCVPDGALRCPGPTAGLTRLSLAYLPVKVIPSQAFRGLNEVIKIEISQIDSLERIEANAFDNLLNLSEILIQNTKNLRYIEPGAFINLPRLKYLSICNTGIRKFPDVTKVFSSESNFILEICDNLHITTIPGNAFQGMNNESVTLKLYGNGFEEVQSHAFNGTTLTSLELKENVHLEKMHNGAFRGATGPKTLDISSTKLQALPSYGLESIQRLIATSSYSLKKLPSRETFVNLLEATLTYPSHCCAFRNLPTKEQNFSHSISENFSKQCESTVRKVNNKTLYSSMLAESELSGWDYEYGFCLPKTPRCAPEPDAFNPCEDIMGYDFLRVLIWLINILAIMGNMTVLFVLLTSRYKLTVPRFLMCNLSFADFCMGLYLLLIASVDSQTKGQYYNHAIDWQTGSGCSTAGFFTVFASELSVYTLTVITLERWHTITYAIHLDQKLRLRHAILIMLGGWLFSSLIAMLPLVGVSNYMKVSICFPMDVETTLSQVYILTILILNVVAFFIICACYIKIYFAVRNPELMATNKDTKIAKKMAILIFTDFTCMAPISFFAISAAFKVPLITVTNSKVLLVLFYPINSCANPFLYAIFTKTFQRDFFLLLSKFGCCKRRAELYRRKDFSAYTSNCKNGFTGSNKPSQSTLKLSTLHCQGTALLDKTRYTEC
T2 sequence (P16473 21-764 Y667A): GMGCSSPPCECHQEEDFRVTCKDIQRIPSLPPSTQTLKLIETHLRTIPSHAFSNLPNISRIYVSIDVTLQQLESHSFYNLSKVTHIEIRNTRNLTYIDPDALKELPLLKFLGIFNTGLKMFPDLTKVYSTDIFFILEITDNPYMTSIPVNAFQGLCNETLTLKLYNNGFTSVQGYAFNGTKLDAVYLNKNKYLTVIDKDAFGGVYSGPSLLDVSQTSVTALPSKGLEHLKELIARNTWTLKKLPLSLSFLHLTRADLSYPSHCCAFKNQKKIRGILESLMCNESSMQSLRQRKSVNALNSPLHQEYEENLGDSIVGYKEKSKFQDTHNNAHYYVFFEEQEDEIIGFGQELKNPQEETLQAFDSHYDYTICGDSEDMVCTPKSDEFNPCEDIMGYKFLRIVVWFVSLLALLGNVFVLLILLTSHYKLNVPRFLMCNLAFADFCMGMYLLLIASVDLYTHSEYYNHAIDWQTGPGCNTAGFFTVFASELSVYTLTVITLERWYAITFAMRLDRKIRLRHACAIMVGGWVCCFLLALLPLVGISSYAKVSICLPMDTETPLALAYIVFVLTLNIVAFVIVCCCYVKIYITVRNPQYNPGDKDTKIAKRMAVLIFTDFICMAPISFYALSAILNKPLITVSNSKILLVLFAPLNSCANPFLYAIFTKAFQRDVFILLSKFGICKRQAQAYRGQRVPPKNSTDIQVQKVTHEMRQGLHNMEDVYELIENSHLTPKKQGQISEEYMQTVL

Turning to `COC/C=C/c1ccc(-c2nc(SC)nc3sc(C(=O)NC(C)(C)C)c(N)c23)cc1` [Compound 52], the “activity at LHCGR compared to full activation by LH” value on human LHCG receptor came to 17.25±2.25%. Further, on TSHR mutant Y7.42A, the “cAMP production, fold over TSHR basal activity, Y7.42A” value is given as 3.2±0.9 fold. In addition, in assay [1] (1 hour pretreatment, 24 hours with TSH, thyrocytes from two donors), the “inhibition of TSH-stimulated increase of TPO mRNA expression” value is “inhibited”. For the same molecule, the “inhibition of TsAb-stimulated TPO mRNA expression” value in assay [1] (Graves' disease sera 1:50, 10 μM compound, 24 hours) was “inhibited”.

These data come from patent publication US20090203716A1, “Pyrimidine low molecular weight ligands for modulating hormone receptors” (The Government of the United States of America as …, priority 2006, published 2009).
